Results published in ChEMBL document CHEMBL1130164 (J Med Chem, 1997).

Assays:
[1] = target: cAMP-dependent protein kinase catalytic subunit alpha (Homo sapiens, UniProt P17612); assay: Inhibitory concentration against recombinant human cAMP-dependent Protein kinase A
[2] = target: Protein kinase C delta type (Homo sapiens, UniProt Q05655); assay: Inhibitory concentration against recombinant human Protein kinase C delta isozyme
[3] = target: T1, Protein kinase C epsilon type (Homo sapiens, UniProt Q02156); assay: Inhibitory concentration against recombinant human Protein kinase C epsilon isozyme
T1 sequence (Q02156 whole entry): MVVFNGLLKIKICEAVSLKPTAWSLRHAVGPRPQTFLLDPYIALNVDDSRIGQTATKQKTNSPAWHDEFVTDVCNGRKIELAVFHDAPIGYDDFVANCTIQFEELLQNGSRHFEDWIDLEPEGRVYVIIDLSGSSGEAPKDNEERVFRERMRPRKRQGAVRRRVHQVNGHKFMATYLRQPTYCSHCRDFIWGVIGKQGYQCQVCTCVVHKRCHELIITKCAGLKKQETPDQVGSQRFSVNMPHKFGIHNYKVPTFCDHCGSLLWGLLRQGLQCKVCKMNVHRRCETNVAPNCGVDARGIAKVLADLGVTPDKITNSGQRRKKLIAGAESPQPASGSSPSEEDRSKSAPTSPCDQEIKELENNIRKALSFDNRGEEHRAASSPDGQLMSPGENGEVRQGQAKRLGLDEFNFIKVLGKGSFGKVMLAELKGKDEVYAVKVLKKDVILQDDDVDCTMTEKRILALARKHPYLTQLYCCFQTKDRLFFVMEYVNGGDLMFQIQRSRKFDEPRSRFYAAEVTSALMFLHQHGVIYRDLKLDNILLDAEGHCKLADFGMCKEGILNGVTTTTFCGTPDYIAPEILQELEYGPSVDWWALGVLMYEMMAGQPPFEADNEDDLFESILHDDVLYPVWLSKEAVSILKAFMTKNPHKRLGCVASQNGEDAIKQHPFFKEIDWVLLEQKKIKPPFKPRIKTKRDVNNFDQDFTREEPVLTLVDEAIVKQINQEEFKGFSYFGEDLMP

[4] = target: T2, Protein kinase C beta type (Homo sapiens, UniProt P05771); assay: Inhibitory concentration against recombinant human Protein kinase C beta 2 isozyme
T2 sequence (P05771 whole entry): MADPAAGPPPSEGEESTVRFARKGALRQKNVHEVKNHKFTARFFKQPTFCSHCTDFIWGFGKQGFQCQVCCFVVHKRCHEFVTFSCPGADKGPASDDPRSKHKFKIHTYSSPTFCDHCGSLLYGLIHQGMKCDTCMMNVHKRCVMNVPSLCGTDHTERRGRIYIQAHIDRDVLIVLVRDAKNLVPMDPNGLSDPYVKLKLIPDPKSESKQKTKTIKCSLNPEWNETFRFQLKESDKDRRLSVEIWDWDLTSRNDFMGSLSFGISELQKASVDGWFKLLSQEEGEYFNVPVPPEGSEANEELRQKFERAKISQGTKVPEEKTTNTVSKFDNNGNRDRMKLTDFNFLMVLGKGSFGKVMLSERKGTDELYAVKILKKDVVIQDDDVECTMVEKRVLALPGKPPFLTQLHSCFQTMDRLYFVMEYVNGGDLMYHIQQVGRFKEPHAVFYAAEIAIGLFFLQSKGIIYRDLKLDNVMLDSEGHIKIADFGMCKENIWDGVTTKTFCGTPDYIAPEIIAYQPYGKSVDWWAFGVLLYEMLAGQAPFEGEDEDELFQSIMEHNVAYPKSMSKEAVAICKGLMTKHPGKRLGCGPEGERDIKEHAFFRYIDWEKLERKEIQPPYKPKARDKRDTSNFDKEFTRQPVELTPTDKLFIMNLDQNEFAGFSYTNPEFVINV

[5] = target: Protein kinase C alpha type (Homo sapiens, UniProt P17252); assay: Inhibitory concentration against recombinant human Protein kinase C alpha isozyme
[6] = target: Protein kinase C gamma type (Homo sapiens, UniProt P05129); assay: Inhibitory concentration against recombinant human Protein kinase C gamma isozyme
[7] = target: Protein kinase C eta type (Homo sapiens, UniProt P24723); assay: Inhibitory concentration against recombinant human Protein kinase C eta isozyme
Protein kinase C eta type, sequence (P24723 whole entry): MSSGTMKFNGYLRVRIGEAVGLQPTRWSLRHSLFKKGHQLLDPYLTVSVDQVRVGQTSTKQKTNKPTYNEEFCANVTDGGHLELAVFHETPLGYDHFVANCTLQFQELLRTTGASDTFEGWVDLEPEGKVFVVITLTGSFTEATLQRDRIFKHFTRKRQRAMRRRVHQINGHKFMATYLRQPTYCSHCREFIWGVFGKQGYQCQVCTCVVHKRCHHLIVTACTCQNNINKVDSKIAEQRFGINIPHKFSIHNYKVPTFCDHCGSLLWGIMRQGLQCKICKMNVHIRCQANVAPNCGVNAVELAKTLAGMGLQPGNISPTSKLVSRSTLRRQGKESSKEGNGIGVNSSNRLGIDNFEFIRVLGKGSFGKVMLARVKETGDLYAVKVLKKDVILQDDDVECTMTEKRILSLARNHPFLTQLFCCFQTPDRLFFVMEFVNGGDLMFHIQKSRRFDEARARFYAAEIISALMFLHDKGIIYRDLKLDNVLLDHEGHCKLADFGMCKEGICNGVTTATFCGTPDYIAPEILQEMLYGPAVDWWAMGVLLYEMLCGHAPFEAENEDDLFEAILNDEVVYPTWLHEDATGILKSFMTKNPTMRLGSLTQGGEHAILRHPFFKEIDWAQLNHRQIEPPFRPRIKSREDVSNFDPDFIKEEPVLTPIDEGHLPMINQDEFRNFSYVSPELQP

[8] = target: T2, Protein kinase C beta type; assay: Inhibitory concentration against recombinant human Protein kinase C beta 1 isozyme
[9] = target: T3, Protein kinase C zeta type (Homo sapiens, UniProt Q05513); assay: Inhibitory concentration against recombinant human Protein kinase C zeta isozyme
T3 sequence (Q05513 whole entry): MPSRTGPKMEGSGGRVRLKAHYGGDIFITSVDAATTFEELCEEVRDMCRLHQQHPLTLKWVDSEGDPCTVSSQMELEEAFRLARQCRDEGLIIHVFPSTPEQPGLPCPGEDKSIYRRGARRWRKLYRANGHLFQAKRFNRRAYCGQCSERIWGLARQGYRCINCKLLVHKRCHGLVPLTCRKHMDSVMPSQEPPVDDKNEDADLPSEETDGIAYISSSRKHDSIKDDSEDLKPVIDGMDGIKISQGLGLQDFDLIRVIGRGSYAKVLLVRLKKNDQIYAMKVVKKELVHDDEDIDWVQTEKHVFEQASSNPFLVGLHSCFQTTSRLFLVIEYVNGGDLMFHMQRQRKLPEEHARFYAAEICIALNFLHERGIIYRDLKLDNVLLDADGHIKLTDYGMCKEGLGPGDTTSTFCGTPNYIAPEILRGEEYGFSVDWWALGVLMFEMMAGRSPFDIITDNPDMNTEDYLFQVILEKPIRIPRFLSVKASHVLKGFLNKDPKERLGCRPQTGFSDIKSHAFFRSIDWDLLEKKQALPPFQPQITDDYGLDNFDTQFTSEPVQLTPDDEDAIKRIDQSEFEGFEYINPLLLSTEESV

Protein kinase C delta type, sequence (Q05655 whole entry): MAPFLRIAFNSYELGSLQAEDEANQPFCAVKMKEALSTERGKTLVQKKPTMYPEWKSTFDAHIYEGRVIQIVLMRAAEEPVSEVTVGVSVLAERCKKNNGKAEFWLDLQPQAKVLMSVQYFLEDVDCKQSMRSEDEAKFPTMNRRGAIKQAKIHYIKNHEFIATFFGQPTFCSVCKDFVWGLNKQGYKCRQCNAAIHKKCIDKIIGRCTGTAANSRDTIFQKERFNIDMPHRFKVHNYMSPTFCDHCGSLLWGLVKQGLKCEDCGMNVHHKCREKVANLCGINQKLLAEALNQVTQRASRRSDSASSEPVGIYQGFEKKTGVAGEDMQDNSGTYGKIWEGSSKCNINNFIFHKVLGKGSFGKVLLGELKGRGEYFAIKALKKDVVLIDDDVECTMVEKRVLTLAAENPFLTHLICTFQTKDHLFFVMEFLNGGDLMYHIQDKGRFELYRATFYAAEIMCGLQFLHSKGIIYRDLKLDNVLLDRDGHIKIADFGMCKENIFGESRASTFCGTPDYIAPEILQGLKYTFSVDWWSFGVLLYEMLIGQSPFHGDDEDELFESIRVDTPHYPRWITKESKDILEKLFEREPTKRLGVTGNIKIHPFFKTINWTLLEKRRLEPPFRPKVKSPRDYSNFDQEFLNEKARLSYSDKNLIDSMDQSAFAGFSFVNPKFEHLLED

Compound | IC50 [1] [nM] | IC50 [2] [nM] | IC50 [3] [nM] | IC50 [4] [nM] | IC50 [5] [nM] | IC50 [6] [nM] | IC50 [7] [nM] | IC50 [8] [nM] | IC50 [9] [µM]
O=C(N[C@@H]1C2CC(C3CCCC32)[C@H]1OC(=O)c1cc(O)c(C(=O)c2c(O)cccc2C(=O)O)c(O)c1)c1ccc(O)cc1 (stereo partly drawn) | 32000 | – | – | – | – | – | – | – | –
O=C(N[C@@H]1COCCC[C@H]1OC(=O)c1cc(O)c(C(=O)c2c(O)cccc2C(=O)O)c(O)c1)c1ccc(O)cc1 | 450 | 90 | 16000 | 3300 | 6700 | 1000 | 10 | 2500 | > 150
O=C(N[C@@H]1CC(O)C[C@H]1OC(=O)c1cc(O)c(C(=O)c2c(O)cccc2C(=O)O)c(O)c1)c1ccc(O)cc1 (stereo partly drawn) | 130 | 5 | 100 | 10 | 40 | 20 | 3 | 20 | –
CS(=O)(=O)N1C[C@@H](NC(=O)c2ccc(O)cc2)[C@H](OC(=O)c2cc(O)c(C(=O)c3c(O)cccc3C(=O)O)c(O)c2)C1 | 4500 | 35 | 1300 | 350 | 910 | 400 | 62 | 330 | > 150
NC[C@@H]1C[C@@H](NC(=O)c2ccc(O)cc2)[C@H](OC(=O)c2cc(O)c(C(=O)c3c(O)cccc3C(=O)O)c(O)c2)C1 | 90 | 20 | 30 | 5 | 20 | 10 | 3 | 5 | 3.1
O=C(N[C@@H]1C[C@@H](O)C[C@H]1OC(=O)c1cc(O)c(C(=O)c2c(O)cccc2C(=O)O)c(O)c1)c1ccc(O)cc1 | 250 | 6 | 150 | 20 | 50 | 30 | 4 | 30 | –
CC1(C)C2CCC1(C)[C@@H](OC(=O)c1cc(O)c(C(=O)c3c(O)cccc3C(=O)O)c(O)c1)[C@@H]2NC(=O)c1ccc(O)cc1 (stereo partly drawn) | 26000 | 340 | 3600 | 80 | 410 | 210 | 310 | 310 | > 50
N[C@@H]1C[C@@H](NC(=O)c2ccc(O)cc2)[C@H](OC(=O)c2cc(O)c(C(=O)c3c(O)cccc3C(=O)O)c(O)c2)C1 | 50 | 5 | 10 | 2 | 20 | 5 | 3 | 4 | 1.2
O=C(N[C@@H]1CNC[C@H]1OC(=O)c1cc(O)c(C(=O)c2c(O)cccc2C(=O)O)c(O)c1)c1ccc(O)cc1 | 70 | – | – | – | – | – | – | – | –
O=C(N[C@@H]1CNCC[C@H]1OC(=O)c1cc(O)c(C(=O)c2c(O)cccc2C(=O)O)c(O)c1)c1ccc(O)cc1 | 350 | – | – | – | – | – | 90 | – | –
COC(=O)N1C[C@@H](NC(=O)c2ccc(O)cc2)[C@H](OC(=O)c2cc(O)c(C(=O)c3c(O)cccc3C(=O)O)c(O)c2)C1 | 13000 | 100 | 4800 | 2700 | 540 | 540 | 90 | 810 | > 150
O=C(N[C@H]1CNCCC[C@@H]1OC(=O)c1cc(O)c(C(=O)c2c(O)cccc2C(=O)O)c(O)c1)c1ccc(O)cc1 | – | 420 | – | 880 | 3000 | 400 | 260 | 500 | > 150
O=C(N[C@@H]1C2CCC(C2)[C@H]1OC(=O)c1cc(O)c(C(=O)c2c(O)cccc2C(=O)O)c(O)c1)c1ccc(O)cc1 (stereo partly drawn) | 1900 | 20 | 30 | 30 | 60 | 40 | 20 | 50 | –
O=C(NC1CNCCCC1OC(=O)c1cc(O)c(C(=O)c2c(O)cccc2C(=O)O)c(O)c1)c1ccc(O)cc1 (racemic) | – | 20 | – | – | 70 | – | – | – | 3.5

Next, values leading:

IC50 [1] [nM] | IC50 [2] [nM] | IC50 [3] [nM] | IC50 [4] [nM] | IC50 [5] [nM] | IC50 [6] [nM] | IC50 [7] [nM] | IC50 [8] [nM] | IC50 [9] [µM] | Compound
1400 | – | – | – | – | – | – | – | – | O=C(N[C@@H]1CCCCC[C@H]1OC(=O)c1cc(O)c(C(=O)c2c(O)cccc2C(=O)O)c(O)c1)c1ccc(O)cc1
38000 | 4000 | 45000 | 3600 | 9600 | 4300 | 800 | 5200 | > 150 | O=C(N[C@@H]1CS(=O)(=O)CCC[C@H]1OC(=O)c1cc(O)c(C(=O)c2c(O)cccc2C(=O)O)c(O)c1)c1ccc(O)cc1
> 50000 | – | – | – | – | – | – | – | – | CN1C2CCC1C(NC(=O)c1ccc(O)cc1)C(OC(=O)c1cc(O)c(C(=O)c3c(O)cccc3C(=O)O)c(O)c1)C2 (stereo not drawn)
170 | 6 | 30 | 4 | 20 | 5 | 3 | 4 | 2.8 | NC[C@H]1C[C@@H](NC(=O)c2ccc(O)cc2)[C@H](OC(=O)c2cc(O)c(C(=O)c3c(O)cccc3C(=O)O)c(O)c2)C1
3000 | 40 | 3600 | 1800 | 2200 | 410 | 130 | 680 | > 50 | CNC(=O)N1C[C@@H](NC(=O)c2ccc(O)cc2)[C@H](OC(=O)c2cc(O)c(C(=O)c3c(O)cccc3C(=O)O)c(O)c2)C1
3600 | 60 | 3700 | 820 | 1200 | 390 | 30 | 710 | > 150 | CC(=O)N1C[C@@H](NC(=O)c2ccc(O)cc2)[C@H](OC(=O)c2cc(O)c(C(=O)c3c(O)cccc3C(=O)O)c(O)c2)C1
220 | 20 | 270 | 20 | 80 | 50 | 20 | 60 | – | O=C(N[C@@H]1C[C@@H](CO)C[C@H]1OC(=O)c1cc(O)c(C(=O)c2c(O)cccc2C(=O)O)c(O)c1)c1ccc(O)cc1
230 | 4 | 160 | 3 | 10 | 5 | 2 | 4 | – | O=C(N[C@@H]1C[C@H](CO)C[C@H]1OC(=O)c1cc(O)c(C(=O)c2c(O)cccc2C(=O)O)c(O)c1)c1ccc(O)cc1
7500 | 90 | 5900 | 2400 | 3300 | 1000 | 100 | 3800 | – | O=C(N[C@@H]1CSCCC[C@H]1OC(=O)c1cc(O)c(C(=O)c2c(O)cccc2C(=O)O)c(O)c1)c1ccc(O)cc1
< 330 | 40 | 50 | 70 | 240 | 90 | 4 | 60 | – | CC(C)N1C[C@@H](NC(=O)c2ccc(O)cc2)[C@H](OC(=O)c2cc(O)c(C(=O)c3c(O)cccc3C(=O)O)c(O)c2)C1
1700 | 110 | 170 | 69 | 410 | 140 | 26 | 26 | – | O=C(N[C@@H]1CN2CCC(CC2)[C@H]1OC(=O)c1cc(O)c(C(=O)c2c(O)cccc2C(=O)O)c(O)c1)c1ccc(O)cc1
– | 4 | – | – | – | 20 | – | – | 7.4 | O=C(N[C@@H]1CNCCC[C@H]1OC(=O)c1cc(O)c(C(=O)c2c(O)cccc2C(=O)O)c(O)c1)c1ccc(O)cc1 [BALANOL]
